Experimental data as given in patent publication US9512152B2, “Phospholipid compound containing unsaturated fatty acid derivative having cyclopropane ring” (NISHIZAKI BIOINFORMATION RESEARCH INSTITUTE, priority 2013, dated 2016).

Tests used:
[1] = induced by scopolamine; non-patent documents 1, 2; cited from earlier work
synapse transmission = conditions: patent document 1; cited from earlier work
[2] = patent document 2; cited from earlier work
[3] = tested on: 3T3L1-GLUT4myc adipocytes; assay: Analysis of GLUT4 trafficking (cellular membrane transport of GLUT4); format: cell-based; conditions: 1 μM, 20 min, FIG. 7
Experimental: 3T3L1-GLUT4myc fibroblast strain expressing GLUT4myc was used. The cells are constructed by inserting human c-MYC epitope (14 amino acids) into the first ectodomain. The cells were cultured in Dulbecco's Modified Eagles Medium (DMEM) added with 10% (v/v) bovine serum, penicillin (final concentration, 100 U/ml) and streptomycin (final concentration, 0.1 mg/ml) in a humid environment under 5% CO2 and 95% air at 37° C. When the cells reached confluence (day 0), the medium was exchanged with DMEM added with 10% (v/v) fetal bovine serum (FBS), 1 μM dexamethasone, 0.5 mM 3-isobutyl-methyl-xanthine and 0.1 mg/ml insulin to allow for differentiation from fibroblast into adipocyte. The medium was exchanged with DMEM added with 10% (v/v) FBS on day 3, day 7 and day 11. On day 14, the cells were used for the experiment.
3T3L1-GLUT4myc adipocytes were incubated in Krebs-Ringer-HEPES buffer [136 mM NaCl, 4.7 mM KCl, 1.25 mM CaCl2, 1.25 mM MgSO4 and 20 mM HEPES, pH 7.5] containing 0.2% (w/v) bovine serum albumin and added with 10 mM glucose at 37° C. for 1 hr. The cells were incubated in the presence or absence of insulin, phospholipid or a derivative thereof for 20 min. Then, the cells were homogenized by sonication in an ice-cooled mitochondria buffer containing 1% (v/v) protease inhibitor cocktail [210 mM mannitol, 70 mM sucrose, and 1 mM ethylenediaminetetraacetic acid (EDTA), 10 mM HEPES, pH 7.5]. Sequentially, the homogenate was centrifuged at 4° C. for 5 min at 3,000 rpm. The supernatant was further centrifuged at 4° C. for 15 min at 11,000 rpm. […] The protein concentration of each fraction was measured using BCA protein assay kit (Thermo Fisher Scientific, Waltham, Mass., USA). […] The immunoreactivity was detected using ECL kit (Invitrogen), and visualized using a chemical luminescence detection system (chemiluminescence detection system; GE Healthcare, Piscataway, N.J., USA). The signal density was measured using an image analysis software (Image Gauge software; GE Healthcare).

For `CCCCC/C=C\C/C=C\CCCCCCCC(=O)OC[C@H](COP(=O)([O-])OCC[N+](C)(C)C)OC(=O)CCCCCCC/C=C\C/C=C\CCCCC` [1,2-dilinoleoyl-sn-glycero-3-phosphocholine], the “Improvement of spatial learning disorder and memory disorder” value [1] is given as “improve spatial learning disorder and memory disorder induced by scopolamine”.
In the case of `CCCCCCCC/C=C\CCCCCCCC(=O)O[C@H](COC(=O)CCCCCCCCCCCCCCC)COP(=O)([O-])OCC[N+](C)(C)C` [1-palmitoyl-2-oleoyl-sn-glycero-3-phosphocholine], the “Improvement of spatial learning disorder and memory disorder” value [1] is listed as “improve spatial learning disorder and memory disorder induced by scopolamine”.
In the case of `CCCCCC1CC1CC1CC1CCCCCCCC(=O)O` (centres unmarked) [DCP-LA, 8-[2-(2-Pentyl-cyclopropylmethyl)-cyclopropyl]-octanoic acid], the “Enhancement of synapse transmission (LTP-like)” value (synapse transmission) is given as “can maintain stable LTP (long-teLm potentiation)-like enhancement of synapse transmission”.
In the case of `CCCCC/C=C/C/C=C/CCCCCCCC(=O)OCC(COP(=O)(O)OCCN)OC(=O)CCCCCCC/C=C/C/C=C/CCCCC` (centres unmarked) [dilinoleoyl•phosphatidylethanolamine], the “Cell death induction suppressive activity / endoplasmic reticulum stress suppressive activity” value [2] is listed as “cell death induction suppressive activity, particularly, endoplasmic reticulum stress suppressive activity”.
For “insulin: insulin, comparison treatment in the GLUT4 trafficking analysis [reference compound]”, the “Promotion of cellular membrane transport of GLUT4” value [3] was “an action to promote cellular membrane transport of GLUT4”.
